Earlier results in PMC7578299, “The antiviral effects of baloxavir marboxil against influenza A virus infection in ferrets” (Influenza and Other Respiratory Viruses, 2020).

Test system: cap-dependent endonuclease (CEN)
Set-up: method as in PMID 30316915
Settings: in vitro studies; cited from earlier work

SMILES: COC(=O)OCOc1c2n(ccc1=O)N([C@@H]1c3ccccc3SCc3c1ccc(F)c3F)[C@@H]1COCCN1C2=O [BXM, Baloxavir marboxil]
- CEN inhibitory activity, fold lower than that of BXA: ≥ 200 fold
